What all share (format): cell-based
Test [1] deals with T1, hGIPR (Homo sapiens, UniProt P48546).
T1 sequence (P48546 22-466): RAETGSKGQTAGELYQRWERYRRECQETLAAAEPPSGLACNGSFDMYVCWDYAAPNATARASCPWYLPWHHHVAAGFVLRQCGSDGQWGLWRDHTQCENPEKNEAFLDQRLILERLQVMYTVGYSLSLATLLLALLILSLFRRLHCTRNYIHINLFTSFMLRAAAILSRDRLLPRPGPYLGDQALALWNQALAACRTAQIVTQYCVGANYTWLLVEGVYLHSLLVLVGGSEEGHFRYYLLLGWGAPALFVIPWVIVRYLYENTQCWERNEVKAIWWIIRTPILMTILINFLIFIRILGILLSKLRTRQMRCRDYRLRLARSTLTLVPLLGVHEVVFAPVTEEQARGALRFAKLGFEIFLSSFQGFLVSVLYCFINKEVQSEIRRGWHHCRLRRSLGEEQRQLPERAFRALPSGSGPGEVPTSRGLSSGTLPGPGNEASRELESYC
The experiment in a line: Functional cAMP activation in the presence of 0.1% casein (no HSA). The conditions noted are these: read-out: Relative cAMP EC50, hGIPR.

The target of test [2] is human GcgR (Homo sapiens, UniProt P47871). The experiment in a line: Functional cAMP activity in the presence of 1% HSA. The conditions noted are these: read-out: cAMP Rel EC50, hGcgR.
The target of test [3] is T2, hGLP-1R (Homo sapiens, UniProt P43220). The experiment in a line: Functional cAMP activation in the presence of 0.1% casein (no HSA). The conditions noted are these: read-out: Relative cAMP EC50, hGLP-1R.
In test [4] the target is hGcgR (Homo sapiens, UniProt P47871). The description is as above. To be noted: read-out: Relative cAMP EC50, hGcgR.
Test [5] addresses T2, hGLP-1R. Put plainly: Functional cAMP activity in the presence of 1% HSA. The conditions noted are these: read-out: cAMP Rel EC50, hGLP-1R.
Test [6] concerns the target T1, hGIPR. The experiment in a line: Functional cAMP activity in the presence of 1% HSA. The conditions noted are these: read-out: cAMP Rel EC50, hGIPR.
[7] abbreviates: in the presence of 0.1% casein (no HSA), geometric mean.
[8] abbreviates: 0.1% casein, no HSA, geometric mean.

Read-outs that look alike come from different tables or passages of the source. Starred links: 1 amine or outer side, 2 acyl side, 3 side chain; linkers in the order of their positions; H or OH if unused. Non-standard residues stand in square brackets, D forms with d. Residues, ends and D or L forms follow the SMILES beside them. Groups on a side chain read outwards from the residue. No end group written: not given here. *: point of attachment. C20 diacid = O=C(O)CCCCCCCCCCCCCCCCCCC(=O)*; C18 diacid = O=C(O)CCCCCCCCCCCCCCCCC(=O)*; αMePhe(2-F) = C[C@](N)(Cc1ccccc1F)C(=O)O; γGlu = O=C(O)[C@H](CCC(=O)[*:2])N[*:1]; αMe4Pal = C[C@](N)(Cc1ccncc1)C(=O)O; αMeY = C[C@](N)(Cc1ccc(O)cc1)C(=O)O; αMeF = C[C@](N)(Cc1ccccc1)C(=O)O; 4Pal = N[C@@H](Cc1ccncc1)C(=O)O; αMeL = CC(C)C[C@](C)(N)C(=O)O; αMeS = C[C@](N)(CO)C(=O)O; Orn = NCCC[C@H](N)C(=O)O; AEEA = NCCOCCOCC(=O)O; Aib = CC(C)(N)C(=O)O

By EC50 is commonly meant the concentration that produces a half-maximal response.
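Wherever Relative cAMP EC50, hGIPR is given: intracellular cAMP rise after 30 min at 37 °C read by HTRF against a standard curve, scaled between buffer alone (0%) and top control ligand concentration (100%), four-parameter fit.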
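Wherever Relative cAMP EC50, hGLP-1R is given: intracellular cAMP rise after 30 min at 37 °C read by HTRF, normalized between buffer only (0%) and maximal control ligand (100%), four-parameter variable-slope fit.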
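Wherever Relative cAMP EC50, hGcgR is given: intracellular cAMP rise after 30 min at 37 °C, read by HTRF against a cAMP standard curve, scaled from buffer only (0%) to maximal control ligand response (100%).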

T2 sequence (P43220 24-463): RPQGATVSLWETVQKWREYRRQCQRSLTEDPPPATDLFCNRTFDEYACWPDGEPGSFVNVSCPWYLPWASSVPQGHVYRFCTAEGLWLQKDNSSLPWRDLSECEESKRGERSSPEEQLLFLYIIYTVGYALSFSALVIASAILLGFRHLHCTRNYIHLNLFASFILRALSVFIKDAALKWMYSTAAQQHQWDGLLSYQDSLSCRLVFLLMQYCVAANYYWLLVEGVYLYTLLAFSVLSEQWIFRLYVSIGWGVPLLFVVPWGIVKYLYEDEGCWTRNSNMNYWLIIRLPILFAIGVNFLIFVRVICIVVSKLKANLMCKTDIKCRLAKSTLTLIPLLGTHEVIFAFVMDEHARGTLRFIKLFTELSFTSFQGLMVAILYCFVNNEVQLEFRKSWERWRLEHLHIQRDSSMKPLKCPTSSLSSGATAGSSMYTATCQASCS
Chain of hGcgR (P47871 26-477): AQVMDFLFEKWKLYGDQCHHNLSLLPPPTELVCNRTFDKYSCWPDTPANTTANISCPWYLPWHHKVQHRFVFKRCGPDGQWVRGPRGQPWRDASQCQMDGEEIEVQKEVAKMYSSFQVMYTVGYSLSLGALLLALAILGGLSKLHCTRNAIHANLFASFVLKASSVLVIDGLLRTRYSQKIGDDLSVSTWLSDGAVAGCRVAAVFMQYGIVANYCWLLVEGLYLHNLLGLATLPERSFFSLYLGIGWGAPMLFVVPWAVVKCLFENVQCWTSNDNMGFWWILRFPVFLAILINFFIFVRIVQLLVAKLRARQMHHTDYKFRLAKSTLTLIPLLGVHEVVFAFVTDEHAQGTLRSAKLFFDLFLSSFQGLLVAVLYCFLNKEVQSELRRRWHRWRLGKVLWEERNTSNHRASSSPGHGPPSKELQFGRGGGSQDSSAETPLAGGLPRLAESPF
Chain of human GcgR (P47871 26-477): as above

`CC[C@H](C)[C@H](NC(=O)[C@H](CC(C)C)NC(=O)[C@](C)(Cc1ccncc1)NC(=O)[C@@H](CCC(=O)O)NC(=O)[C@@H](NC(=O)[C@H](Cc1ccccc1)NC(=O)[C@H](CCCN)NC(=O)C(C)(C)NC(=O)[C@H](CCC(N)=O)NC(=O)[C@H](C)NC(=O)[C@H](CCCCNC(=O)COCCOCCNC(=O)CC[C@H](NC(=O)CCCCCCCCCCCCCCCCC(=O)O)C(=O)O)NC(=O)[C@H](CCCN)NC(=O)[C@H](CC(=O)O)NC(=O)[C@H](CC(C)C)NC(=O)[C@](C)(CC(C)C)NC(=O)[C@@H](NC(=O)[C@](C)(CO)NC(=O)[C@H](Cc1ccncc1)NC(=O)[C@H](CC(=O)O)NC(=O)[C@H](CO)NC(=O)[C@@H](NC(=O)[C@](C)(Cc1ccccc1F)NC(=O)[C@@H](NC(=O)CNC(=O)[C@H](CCC(N)=O)NC(=O)C(C)(C)NC(=O)[C@@H](N)Cc1ccc(O)cc1)[C@@H](C)O)[C@@H](C)O)[C@@H](C)CC)[C@@H](C)CC)C(=O)N[C@@H](CCC(=O)O)C(=O)NCC(=O)NCC(=O)N1CCC[C@H]1C(=O)N[C@@H](CO)C(=O)N[C@@H](CO)C(=O)NCC(=O)N[C@@H](CCC(=O)O)C(=O)N1CCC[C@H]1C(=O)N1CCC[C@H]1C(=O)N1CCC[C@H]1C(=O)N[C@@H](CCC(=O)O)C(N)=O` [Example 453] (H-Y[Aib]QGT[αMePhe(2-F)]TSD[4Pal][αMeS]I[αMeL]LD[Orn]K([AEEA-γGlu-C18 diacid])AQ[Aib][Orn]FI[dE][αMe4Pal]LIEGGPSSGEPPPE-NH2): the EC50 was found to be 0.0184 nM in test [1]; 261 nM in test [2]; 0.374 nM in test [3]; 7.37 nM in test [4]; 20.6 nM in test [5]; 1.95 nM in test [6].

Take “H-Y[Aib]QGT[αMePhe(2-F)]TSD[4Pal][αMeS]I[αMeL]LD[Orn]K([γGlu-γGlu-C18 diacid])AQ[αMe4Pal]EFI[dE][αMeY]LVEGGPSSGEPPPSGGGE-NH2 [Example 739]”: the EC50 was 0.015 nM in test [1]; 155 nM in test [2]; 0.348 nM in test [3]; 1.59 nM in test [4]; 27.1 nM in test [5]; 0.507 nM in test [6].

Consider “H-Y[Aib]QGTFTSDFSK[αMeL]LDKK([AEEA-γGlu-C20 diacid])AQ[Aib]AFIEYLLEGGPSSGEPPPEEG-NH2 [Example 35]”, for which the EC50 amounted to 0.55 nM in test [1] (setting [7]); 1390 nM in test [2]; 3.05 nM in test [3] (setting [7]); 4.32 nM in test [4] (setting [7]); 1130 nM in test [5]; 194 nM in test [6].

As to “H-Y[Aib]QGT[αMePhe(2-F)]TSD[4Pal][αMeS]I[αMeL]LD[Orn]K([AEEA-γGlu-C18 diacid])AQ[Aib]NFIEYLIEGGPSSGEPPPEEG-NH2 [Example 482]”, the EC50 in test [1] was 0.0139 nM; in test [2], 325 nM; in test [3], 0.177 nM; in test [4], 1.41 nM; in test [5] it was 14.9 nM; in test [6] it was 1.58 nM.

As to “Y[Aib]QGTFTSD[4Pal]SQ[αMeL]LDKK([Glu-Glu-γGlu-C18 diacid])AQ[αMe4Pal]AFIEYLIE[Aib]GPSSGAPPPSGS-NH2 [Example 895]”, the EC50 in test [1] (setting [7]) was 0.111 nM; in test [2], 1250 nM; in test [3] (setting [7]), 3.72 nM; in test [4] (setting [7]) it was 4.68 nM; in test [5] it was 599 nM; in test [6], 34 nM.

Regarding “H-Y[Aib]QGT[αMePhe(2-F)]TSD[4Pal][αMeS]I[αMeL]LD[Orn]K([AEEA-γGlu-C18 diacid])AA[Aib]EFI[dE][αMeY]LIEGGPSSGAPPPSGTEQ-OH [Example 726]”, the EC50 in test [1] turned out to be 0.013 nM; in test [2], 226 nM; in test [3] it was 0.247 nM; in test [4], 1.71 nM; in test [5] it was 33.3 nM; in test [6], 1.22 nM.

`CC[C@H](C)[C@H](NC(=O)[C@H](Cc1ccccc1)NC(=O)[C@H](C)NC(=O)C(C)(C)NC(=O)[C@H](CCC(N)=O)NC(=O)[C@H](C)NC(=O)[C@H](CCCCNC(=O)COCCOCCNC(=O)CC[C@H](NC(=O)CCCCCCCCCCCCCCCCC(=O)O)C(=O)O)NC(=O)[C@H](CCCCN)NC(=O)[C@H](CC(=O)O)NC(=O)[C@H](CC(C)C)NC(=O)[C@H](CC(C)C)NC(=O)[C@@H](NC(=O)[C@H](CO)NC(=O)[C@H](Cc1ccc(O)cc1)NC(=O)[C@H](CC(=O)O)NC(=O)[C@H](CO)NC(=O)[C@@H](NC(=O)[C@](C)(Cc1ccccc1)NC(=O)[C@@H](NC(=O)CNC(=O)[C@H](CCC(N)=O)NC(=O)C(C)(C)NC(=O)[C@@H](N)Cc1ccc(O)cc1)[C@@H](C)O)[C@@H](C)O)[C@@H](C)CC)C(=O)N[C@@H](CCC(=O)O)C(=O)N[C@@H](Cc1ccc(O)cc1)C(=O)N[C@@H](CC(C)C)C(=O)N[C@@H](CCC(=O)O)C(=O)N[C@@H](CCC(=O)O)C(=O)NCC(=O)NCC(=O)N1CCC[C@H]1C(=O)N[C@@H](CO)C(=O)N[C@@H](CO)C(=O)NCC(=O)N[C@@H](C)C(=O)N1CCC[C@H]1C(=O)N1CCC[C@H]1C(=O)N1CCC[C@H]1C(=O)N[C@@H](CO)C(N)=O` [Example 392] (H-Y[Aib]QGT[αMeF]TSDYSILLDKK([AEEA-γGlu-C18 diacid])AQ[Aib]AFIEYLEEGGPSSGAPPPS-NH2): the EC50 in test [1] was 0.0571 nM; in test [2], 611 nM; in test [3], 0.253 nM; in test [4], 3.02 nM; in test [5], 41.5 nM; in test [6] it was 28.7 nM.

With “Y[Aib]QGT[αMeF]TSD[4Pal][αMeS]I[αMeL]LD[Orn]K([AEEA-γGlu-C18 diacid])AQ[αMe4Pal]EFI[dE][αMeY]LIEGGPSSGAPPPSGGGE-NH2 [Example 1168]”, the EC50 in test [1] (setting [7]) was determined as 0.00839 nM; in test [2], 364 nM; in test [3] (setting [7]) it was 0.422 nM; in test [4] (setting [7]), 2.63 nM; in test [5] it was 65.4 nM; in test [6] it was 0.999 nM.

Turning to “H-Y[Aib]QGT[αMePhe(2-F)]TSD[4Pal][αMeS]I[αMeL]LD[Orn]QAQ[αMe4Pal]EFI[dE][αMeY]LIEGGPSSGAPPPSGSE-NH2 [Example 1233]”, the EC50 in test [1] (setting [8]) worked out at 0.012 nM; in test [2], 9.9 nM; in test [3] (setting [8]) it was 1.09 nM; in test [4] (setting [8]), 9.48 nM; in test [5], 1.06 nM; in test [6], 0.00988 nM.

“H-Y[Aib]QGTFTSD[4Pal]SK[αMeL]LDKK([γGlu-γGlu-C18 diacid])AQ[Aib]AFIEYLIE[Aib]GPSSGAPPPSGSEEE-NH2 [Example 906]”: the EC50 in test [1] (setting [7]) was 0.212 nM; in test [2], 1170 nM; in test [3] (setting [7]) it was 2.48 nM; in test [4] (setting [7]), 14.7 nM; in test [5], 236 nM; in test [6], 15.4 nM.

Take “H-Y[Aib]QGT[αMePhe(2-F)]TSDYSKLLDKIAQK([AEEA-γGlu-C18 diacid])AFIEYLIEGGPSSGEPPPSEG-NH2 [Example 330]”: the EC50 in test [1] (setting [7]) is 0.0783 nM; in test [2], 398 nM; in test [3] (setting [7]), 0.63 nM; in test [4] (setting [7]), 3.91 nM; in test [5], 91.8 nM; in test [6], 7.33 nM.

As to “Y[Aib]QGTFTSD[4Pal]SQ[αMeL]LD[Orn]K([dE-γGlu-C18 diacid])AQ[αMe4Pal]QFIE[αMeY]LIAGGPSSGAPPPSGSEEE-NH2 [Example 1081]”, the 50% effective concentration (EC50) turned out to be 0.105 nM in test [1] (setting [7]); 2130 nM in test [2]; 1.29 nM in test [3] (setting [7]); 19.7 nM in test [4] (setting [7]); 151 nM in test [5]; 8.44 nM in test [6].

For the origin of these results see patent US20240270821A1, “GIP/GLP1/GCG TRI-RECEPTOR AGONISTS AND USES THEREOF” (priority 2023, published 2024).
